Laboratory results taken from US20200361895A1, “NOVEL SULFONAMIDE CARBOXAMIDE COMPOUNDS” (Inflazome Limited, priority 2017, published 2020).
Counter-ions that a name gives are not always drawn. Like-named read-outs stand apart in the source and are kept apart here.

Assays:
[1] = PK protocol, intravenous administration; type: in vivo, male Sprague Dawley rats; conditions: male, Sprague Dawley, plasma, rat; for Vd: read-out: Vdss
Description: (§1) Pharmacokinetic parameters were determined in male Sprague Dawley rats (Charles River, UK, 250-350 g; or Vital River Laboratory Animal Technology Co Ltd, Beijing, China, 7-9 weeks old). Animals were individually housed during the study and maintained under a 12 h light/dark cycle. Animals had free access to food and water.
(§2) For intravenous administration, compounds were formulated as a solution in water or DMSO:PBS [10:90] in 2 mL/kg dosing volume and administered via tail vein. For oral administration, compounds were formulated as a solution in DMSO:water [10:90] in 5 mL/kg dosing volume and administered orally.
(§3) Serial blood samples (about 120-300 μL) were taken from each animal at each of 8 time-points post dose (0.083, 0.25, 0.5, 1, 2, 4, 8 and 24 h) or at each of 12 time-points post dose (0.03, 0.1, 0.17, 0.25, 0.5, 1, 2, 4, 6, 8, 12 and 24 h) or pre-dose and at each of 9 time-points post dose (0.25, 0.5, 1, 2, 4, 6, 8, 12 and 24 h). Samples were held on ice for no longer than 30 minutes before centrifugation (10,000 rpm (8,385 g) for 3 minutes; or 5,696 rpm (3,000 g) for 15 minutes) for plasma generation. Plasma was frozen on dry ice prior to bioanalysis. PK parameters were generated from LC-MS/MS data using Dotmatics or Phoenix WinNonlin 6.3 software.

[2] = molecular target: T1, NLRP3 (Homo sapiens, UniProt Q96P20); assay: Human whole blood IL1β release assay (LPS + nigericin, AlphaLisa IL-1β; HWB IC50); type: cell-based; set-up: Human whole blood in Li-heparin tubes was obtained from healthy donors from a volunteer donor panel; from tissue; host or cells: human whole blood from healthy donors; conditions: IL-1β release
Procedure, shortened: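 Donor Li-heparin whole blood primed with 1 μg/ml LPS, given compound (8-point half-log series, 10 μM top; DMSO 0.1% final) for 3 h at 37 °C, then nigericin 10 μM final for 1 h. Supernatant IL-1β measured by AlphaLisa; IC50 from 4-parameter variable-slope fit.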

[3] = molecular target: T1, NLRP3; assay: THP-1 cells pyroptosis assay (LPS + nigericin, resazurin readout; THP IC50); type: cell-based; set-up: Seed THP-1 cells (25,000 cells/well) containing 1.0 μg/ml LPS in 40 μl of RPMI medium; host or cells: THP-1 cells
Procedure, shortened: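 Human THP-1 cells, 25,000/well in serum-free RPMI with 1 μg/ml LPS, treated 3 hrs at 37° C with compound (8-point half-log, 10 μM top, 0.1% DMSO), then 5 μM nigericin 1 hr. Viability by 100 μM resazurin fluorescence after 1-2 hrs; IC50 by 4-parameter fit.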

[4] = PK protocol, oral administration; type: in vivo; conditions: rat, male Sprague Dawley rats, 3 mg/kg, solution in DMSO:water [10:90], plasma
Description: as §1, §2, §3

T1 sequence (Q96P20 whole entry): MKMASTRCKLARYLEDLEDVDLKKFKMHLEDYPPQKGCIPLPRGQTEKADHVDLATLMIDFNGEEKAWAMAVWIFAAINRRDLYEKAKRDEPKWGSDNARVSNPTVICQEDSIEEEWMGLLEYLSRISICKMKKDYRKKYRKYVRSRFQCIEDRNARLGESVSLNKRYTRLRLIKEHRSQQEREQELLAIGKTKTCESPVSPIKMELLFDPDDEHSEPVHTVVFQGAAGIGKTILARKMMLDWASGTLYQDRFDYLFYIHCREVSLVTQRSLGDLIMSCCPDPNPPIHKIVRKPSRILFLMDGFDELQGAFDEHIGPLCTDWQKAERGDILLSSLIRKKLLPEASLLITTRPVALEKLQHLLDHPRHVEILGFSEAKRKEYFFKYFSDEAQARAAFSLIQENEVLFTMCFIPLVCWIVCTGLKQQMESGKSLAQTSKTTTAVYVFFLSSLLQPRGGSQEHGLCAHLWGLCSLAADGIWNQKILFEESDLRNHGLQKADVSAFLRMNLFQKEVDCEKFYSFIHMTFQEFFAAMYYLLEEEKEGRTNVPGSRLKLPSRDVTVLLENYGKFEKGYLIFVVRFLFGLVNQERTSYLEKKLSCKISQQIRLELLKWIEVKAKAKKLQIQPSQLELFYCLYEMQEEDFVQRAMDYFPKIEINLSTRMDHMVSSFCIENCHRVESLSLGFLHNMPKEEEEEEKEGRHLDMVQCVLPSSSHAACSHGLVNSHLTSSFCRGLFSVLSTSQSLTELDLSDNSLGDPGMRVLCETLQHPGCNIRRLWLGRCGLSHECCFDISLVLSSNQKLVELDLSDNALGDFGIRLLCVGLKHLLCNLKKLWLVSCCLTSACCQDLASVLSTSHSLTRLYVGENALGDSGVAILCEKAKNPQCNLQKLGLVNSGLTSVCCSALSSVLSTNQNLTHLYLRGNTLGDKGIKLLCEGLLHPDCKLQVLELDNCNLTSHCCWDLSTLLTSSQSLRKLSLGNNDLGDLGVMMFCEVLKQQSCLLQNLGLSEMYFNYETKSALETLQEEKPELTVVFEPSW

| AUC ([1]; dose 1.69 mg/kg) | clearance ([1]; dose 1.69 mg/kg) | half-life ([1]; dose 1.69 mg/kg) | Vd ([1]; dose 1.69 mg/kg) | IC50 [2] | IC50 [3] | AUC ([1]; dose 1.7 mg/kg) | clearance ([1]; dose 1.7 mg/kg) | half-life ([1]; dose 1.7 mg/kg) | Vd ([1]; dose 1.7 mg/kg) | AUC ([1]; dose 1 mg/kg) | clearance ([1]; dose 1 mg/kg) | half-life ([1]; dose 1 mg/kg) | Vd ([1]; dose 1 mg/kg) | AUC [4] | CL/F [4] | Cmax [4] | Tmax [4] | half-life [4] | bioavailability [4] | Compound |
| --- | --- | --- | --- | --- | --- | --- | --- | --- | --- | --- | --- | --- | --- | --- | --- | --- | --- | --- | --- | --- |
| 1.15 µg·h/mL | 1.48 L/h/kg | 1.2 h | 0.6 L/kg | ≤ 0.5 µM | ≤ 0.5 µM |  |  |  |  |  |  |  |  |  |  |  |  |  |  | COc1cc(-c2ccc3c(c2NC(=O)NS(=O)(=O)c2ccn(CCN(C)C)n2)CCC3)ccn1 [Example 61, 1-(2-(Dimethylamino)ethyl)-N-((5-(2-methoxypyridin-4-yl)-2,3-dihydro-1H-inden-4-yl)carbamoyl)-1H-pyrazole-3-sulfonamide] |
|  |  |  |  | ≤ 0.5 µM | ≤ 0.5 µM |  |  |  |  | 0.896 µg·h/mL | 1.14 L/h/kg | 5.8 h | 0.78 L/kg | 0.504 µg·h/mL | 6.72 L/h/kg | 0.113 µg/mL | 0.5 h | 5 h | 19% | COc1cc(-c2ccc3c(c2NC(=O)NS(=O)(=O)c2ccn(C(C)(C)CN(C)C)n2)CCC3)ccn1 [Example 69, 1-(1-(Dimethylamino)-2-methylpropan-2-yl)-N-((5-(2-methoxypyridin-4-yl)-2,3-dihydro-1H-inden-4-yl)carbamoyl)-1H-pyrazole-3-sulfonamide] |
|  |  |  |  | ≤ 0.5 µM | ≤ 0.5 µM |  |  |  |  | 1.26 µg·h/mL | 0.798 L/h/kg | 2.9 h | 2.12 L/kg |  |  |  |  |  |  | COc1cc(-c2ccc3c(c2NC(=O)NS(=O)(=O)c2ccc(CN(C)C)cc2)CCC3)ccn1 [Example 251, 4-((Dimethylamino)methyl)-N-((5-(2-methoxypyridin-4-yl)-2,3-dihydro-1H-inden-4-yl)carbamoyl)benzenesulfonamide, sodium salt] |

Further lines, the compound ahead of its results:

| Compound | AUC ([1]; dose 1.69 mg/kg) | clearance ([1]; dose 1.69 mg/kg) | half-life ([1]; dose 1.69 mg/kg) | Vd ([1]; dose 1.69 mg/kg) | IC50 [2] | IC50 [3] | AUC ([1]; dose 1.7 mg/kg) | clearance ([1]; dose 1.7 mg/kg) | half-life ([1]; dose 1.7 mg/kg) | Vd ([1]; dose 1.7 mg/kg) | AUC ([1]; dose 1 mg/kg) | clearance ([1]; dose 1 mg/kg) | half-life ([1]; dose 1 mg/kg) | Vd ([1]; dose 1 mg/kg) | AUC [4] | CL/F [4] | Cmax [4] | Tmax [4] | half-life [4] | bioavailability [4] |
| --- | --- | --- | --- | --- | --- | --- | --- | --- | --- | --- | --- | --- | --- | --- | --- | --- | --- | --- | --- | --- |
| CCn1nc(S(=O)(=O)NC(=O)Nc2c(-c3ccnc(OC)c3)ccc3c2CCC3)cc1CN(C)C [Example 64, 5-((Dimethylamino)methyl)-1-ethyl-N-((5-(2-methoxypyridin-4-yl)-2,3-dihydro-1H-inden-4-yl)carbamoyl)-1H-pyrazole-3-sulfonamide] |  |  |  |  | ≤ 0.5 µM | ≤ 0.5 µM | 2.71 µg·h/mL | 0.63 L/h/kg | 3.8 h | 1.23 L/kg |  |  |  |  |  |  |  |  |  |  |
| COc1cc(-c2ccc3c(c2NC(=O)NS(=O)(=O)N(C)C2CCN(C)C2)CCC3)ccn1 (stereo not drawn) [Example 122, 3-(N-Methyl-N-(1-methylpyrrolidin-3-yl)sulfamoyl)-1-(5-(2-methoxypyridin-4-yl)-2,3-dihydro-1H-inden-4-yl)urea] |  |  |  |  | ≤ 0.5 µM | ≤ 0.5 µM |  |  |  |  | 1.32 µg·h/mL | 0.756 L/h/kg | 11.1 h | 8.69 L/kg |  |  |  |  |  |  |
| CC(C)n1ccc(S(=O)(=O)NC(=O)Nc2c(-c3ccncc3)cc(F)c3c2CCC3)n1 [Example 205, N-((7-Fluoro-5-(pyridin-4-yl)-2,3-dihydro-1H-inden-4-yl)carbamoyl)-1-isopropyl-1H-pyrazole-3-sulfonamide] |  |  |  |  | ≤ 0.5 µM | ≤ 0.5 µM |  |  |  |  | 4.87 µg·h/mL | 0.204 L/h/kg | 2.6 h | 0.57 L/kg |  |  |  |  |  |  |
| COc1cc(-c2ccc3c(c2NC(=O)NS(=O)(=O)c2ccn(C4CC4)n2)CCC3)ccn1 [Example 221, 1-Cyclopropyl-N-((5-(2-methoxypyridin-4-yl)-2,3-dihydro-1H-inden-4-yl)carbamoyl)-1H-pyrazole-3-sulfonamide, sodium salt] |  |  |  |  | ≤ 0.5 µM | ≤ 0.5 µM |  |  |  |  | 65.4 µg·h/mL | 0.0234 L/h/kg | 15 h | 0.36 L/kg | 136 µg·h/mL | 0.0288 L/h/kg | 7.22 µg/mL | 0.75 h | 12 h | 83% |
| CC(C)n1ccc(S(=O)(=O)NC(=O)Nc2c(-c3ccnnc3)ccc3c2CCC3)n1 [Example 223, 1-Isopropyl-N-((5-(Pyridazin-4-yl)-2,3-dihydro-1H-inden-4-yl)carbamoyl)-1H-pyrazole-3-sulfonamide, sodium salt] |  |  |  |  | ≤ 0.5 µM | ≤ 0.5 µM |  |  |  |  | 1.74 µg·h/mL | 0.576 L/h/kg | 0.9 h | 0.31 L/kg |  |  |  |  |  |  |
| COc1cc(-c2ccc3c(c2NC(=O)NS(=O)(=O)c2ccn(C(C)C)n2)CCO3)ccn1 [Example 224, 1-Isopropyl-N-((5-(2-methoxypyridin-4-yl)-2,3-dihydrobenzofuran-4-yl)carbamoyl)-1H-pyrazole-3-sulfonamide, sodium salt] |  |  |  |  | ≤ 0.5 µM | ≤ 0.5 µM |  |  |  |  | 6.48 µg·h/mL | 0.156 L/h/kg | 3.2 h | 0.47 L/kg |  |  |  |  |  |  |
| CC(C)n1cc(S(=O)(=O)NC(=O)Nc2c(-c3ccnc(C#N)c3)ccc3c2CCC3)nn1 [Example 230, N-((5-(2-Cyanopyridin-4-yl)-2,3-dihydro-1H-inden-4-yl)carbamoyl)-1-isopropyl-1H-1,2,3-triazole-4-sulfonamide, sodium salt] |  |  |  |  | ≤ 0.5 µM | ≤ 0.5 µM |  |  |  |  | 1.95 µg·h/mL | 0.51 L/h/kg | 1.3 h | 0.24 L/kg |  |  |  |  |  |  |
